In ChEMBL document CHEMBL5291721, “A preclinical secondary pharmacology resource illuminates target-adverse drug reaction associations of marketed drugs” (Nat Commun, 2023):

Tests used:
[1] = molecular target: T1, Muscarinic acetylcholine receptor M2 (Homo sapiens, UniProt P08172); format: functional, cell-based
T1 sequence (P08172 whole entry): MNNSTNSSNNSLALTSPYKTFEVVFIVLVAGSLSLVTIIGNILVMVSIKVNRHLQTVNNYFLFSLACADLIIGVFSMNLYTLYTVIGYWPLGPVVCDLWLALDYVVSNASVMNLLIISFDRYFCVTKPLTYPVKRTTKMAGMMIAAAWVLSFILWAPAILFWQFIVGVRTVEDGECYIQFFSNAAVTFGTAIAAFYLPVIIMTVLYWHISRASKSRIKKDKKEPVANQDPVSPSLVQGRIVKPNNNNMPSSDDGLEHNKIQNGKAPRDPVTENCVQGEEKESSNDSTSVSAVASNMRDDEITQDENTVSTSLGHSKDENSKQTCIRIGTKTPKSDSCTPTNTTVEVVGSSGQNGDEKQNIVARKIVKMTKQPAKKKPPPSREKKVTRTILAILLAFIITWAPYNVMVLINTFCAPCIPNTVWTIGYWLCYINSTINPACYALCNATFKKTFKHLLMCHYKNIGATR

[2] = molecular target: Delta-type opioid receptor (Homo sapiens, UniProt P41143)
Sequence of Delta-type opioid receptor (P41143 whole entry): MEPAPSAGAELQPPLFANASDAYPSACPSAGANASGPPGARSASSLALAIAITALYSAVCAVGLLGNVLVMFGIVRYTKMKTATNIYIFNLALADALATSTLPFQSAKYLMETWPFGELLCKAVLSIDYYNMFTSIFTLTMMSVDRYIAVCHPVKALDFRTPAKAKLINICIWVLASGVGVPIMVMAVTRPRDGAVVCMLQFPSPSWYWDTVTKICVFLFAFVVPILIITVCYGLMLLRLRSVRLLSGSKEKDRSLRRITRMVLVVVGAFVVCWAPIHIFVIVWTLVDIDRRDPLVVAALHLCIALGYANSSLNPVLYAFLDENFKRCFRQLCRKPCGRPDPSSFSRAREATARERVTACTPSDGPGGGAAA

Progesterone receptor = molecular target: T2, Progesterone receptor (Homo sapiens, UniProt P06401); format: functional
T2 sequence (P06401 whole entry): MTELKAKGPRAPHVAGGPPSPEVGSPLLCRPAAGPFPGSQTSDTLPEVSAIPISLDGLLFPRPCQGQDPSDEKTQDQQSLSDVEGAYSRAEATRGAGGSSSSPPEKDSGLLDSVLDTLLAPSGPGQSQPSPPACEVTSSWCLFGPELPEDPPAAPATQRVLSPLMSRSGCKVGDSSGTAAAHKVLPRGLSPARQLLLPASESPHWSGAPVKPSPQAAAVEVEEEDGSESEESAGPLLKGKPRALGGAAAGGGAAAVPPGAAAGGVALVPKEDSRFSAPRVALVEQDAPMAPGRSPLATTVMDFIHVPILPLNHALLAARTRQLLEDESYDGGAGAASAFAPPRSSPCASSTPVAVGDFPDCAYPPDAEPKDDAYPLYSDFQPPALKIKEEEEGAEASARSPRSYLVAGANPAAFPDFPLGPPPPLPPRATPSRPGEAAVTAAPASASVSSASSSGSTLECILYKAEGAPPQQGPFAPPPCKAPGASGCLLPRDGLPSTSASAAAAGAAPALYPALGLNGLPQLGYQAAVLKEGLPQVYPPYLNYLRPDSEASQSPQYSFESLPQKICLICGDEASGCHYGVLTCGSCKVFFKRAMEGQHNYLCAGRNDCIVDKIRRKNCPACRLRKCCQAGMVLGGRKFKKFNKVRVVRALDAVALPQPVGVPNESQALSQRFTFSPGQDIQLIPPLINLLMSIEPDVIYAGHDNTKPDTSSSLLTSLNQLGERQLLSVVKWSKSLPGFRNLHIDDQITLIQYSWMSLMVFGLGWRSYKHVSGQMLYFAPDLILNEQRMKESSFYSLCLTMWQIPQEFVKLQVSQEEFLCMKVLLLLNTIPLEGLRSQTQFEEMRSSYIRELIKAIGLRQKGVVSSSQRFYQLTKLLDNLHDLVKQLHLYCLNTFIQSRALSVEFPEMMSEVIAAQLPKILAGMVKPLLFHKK

[3] = molecular target: T3, Prostaglandin G/H synthase 1 (Rattus norvegicus, UniProt Q63921); format: functional
T3 sequence (Q63921 whole entry): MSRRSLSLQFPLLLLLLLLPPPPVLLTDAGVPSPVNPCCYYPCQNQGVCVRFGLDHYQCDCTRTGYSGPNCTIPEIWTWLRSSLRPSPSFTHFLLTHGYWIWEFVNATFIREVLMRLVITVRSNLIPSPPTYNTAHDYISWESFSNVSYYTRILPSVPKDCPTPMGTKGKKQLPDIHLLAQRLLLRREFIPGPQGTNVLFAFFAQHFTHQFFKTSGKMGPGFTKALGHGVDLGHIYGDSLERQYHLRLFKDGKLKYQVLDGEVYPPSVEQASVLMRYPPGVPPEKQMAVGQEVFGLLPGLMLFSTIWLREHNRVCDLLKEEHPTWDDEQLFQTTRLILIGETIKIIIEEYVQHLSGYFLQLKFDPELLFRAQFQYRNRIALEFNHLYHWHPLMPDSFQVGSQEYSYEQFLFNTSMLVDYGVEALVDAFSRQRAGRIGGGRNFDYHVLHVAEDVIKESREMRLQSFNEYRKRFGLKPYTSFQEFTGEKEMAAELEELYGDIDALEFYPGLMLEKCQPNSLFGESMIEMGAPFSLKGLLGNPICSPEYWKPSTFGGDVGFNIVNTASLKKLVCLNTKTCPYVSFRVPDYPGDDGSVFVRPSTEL

[4] = molecular target: T4, Amine oxidase [flavin-containing] A (Homo sapiens, UniProt P21397); format: functional
T4 sequence (P21397 whole entry): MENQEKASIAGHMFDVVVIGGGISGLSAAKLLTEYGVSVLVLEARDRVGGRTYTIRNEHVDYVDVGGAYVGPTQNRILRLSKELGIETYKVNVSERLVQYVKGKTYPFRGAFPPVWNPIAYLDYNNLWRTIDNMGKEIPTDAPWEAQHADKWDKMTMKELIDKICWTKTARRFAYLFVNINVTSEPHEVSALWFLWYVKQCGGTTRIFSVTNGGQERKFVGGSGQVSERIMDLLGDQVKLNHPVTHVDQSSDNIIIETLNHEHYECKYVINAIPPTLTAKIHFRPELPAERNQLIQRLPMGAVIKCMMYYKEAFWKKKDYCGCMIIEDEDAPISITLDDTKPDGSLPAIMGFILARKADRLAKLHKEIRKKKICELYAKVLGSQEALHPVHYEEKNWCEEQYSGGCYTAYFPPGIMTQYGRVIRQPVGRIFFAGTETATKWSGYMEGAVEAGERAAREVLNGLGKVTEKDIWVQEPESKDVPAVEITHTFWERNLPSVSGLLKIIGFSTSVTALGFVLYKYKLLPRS

Cannabinoid receptor 1 = Cannabinoid receptor 1 (Homo sapiens, UniProt P21554); format: functional, cell-based
Sequence of Cannabinoid receptor 1 (P21554 whole entry): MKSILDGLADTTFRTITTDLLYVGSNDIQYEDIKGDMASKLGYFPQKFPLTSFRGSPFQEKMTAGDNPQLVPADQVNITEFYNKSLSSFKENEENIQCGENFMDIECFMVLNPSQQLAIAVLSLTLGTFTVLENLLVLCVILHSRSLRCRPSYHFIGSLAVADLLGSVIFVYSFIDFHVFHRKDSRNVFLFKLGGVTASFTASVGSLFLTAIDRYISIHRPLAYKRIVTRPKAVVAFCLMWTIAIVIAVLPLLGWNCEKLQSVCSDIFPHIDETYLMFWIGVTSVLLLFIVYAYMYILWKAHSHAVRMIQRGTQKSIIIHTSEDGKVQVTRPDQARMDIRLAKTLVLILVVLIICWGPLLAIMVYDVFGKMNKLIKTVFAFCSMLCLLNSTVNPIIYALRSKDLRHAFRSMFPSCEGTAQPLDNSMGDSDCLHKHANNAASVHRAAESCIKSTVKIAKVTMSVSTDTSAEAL

[5] = molecular target: 5-hydroxytryptamine receptor 2A (Homo sapiens, UniProt P28223); format: functional, cell-based
Sequence of 5-hydroxytryptamine receptor 2A (P28223 whole entry): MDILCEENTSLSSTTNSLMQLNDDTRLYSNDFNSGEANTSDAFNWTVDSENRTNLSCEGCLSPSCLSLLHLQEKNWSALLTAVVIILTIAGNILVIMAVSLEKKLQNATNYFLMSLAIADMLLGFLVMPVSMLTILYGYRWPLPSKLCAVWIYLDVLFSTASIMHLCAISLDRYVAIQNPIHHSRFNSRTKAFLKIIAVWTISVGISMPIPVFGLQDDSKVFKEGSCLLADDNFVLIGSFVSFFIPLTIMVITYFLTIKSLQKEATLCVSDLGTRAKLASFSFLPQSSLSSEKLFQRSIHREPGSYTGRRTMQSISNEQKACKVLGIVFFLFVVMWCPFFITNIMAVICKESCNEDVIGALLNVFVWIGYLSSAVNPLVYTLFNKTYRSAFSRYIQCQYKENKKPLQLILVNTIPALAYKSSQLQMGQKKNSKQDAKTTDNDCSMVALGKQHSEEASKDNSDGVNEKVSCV
Also: assay procedure not described here.

Row | SMILES | AC50 [1] [µM] | AC50 [2] [µM] | AC50 (Progesterone receptor) [µM] | AC50 [3] [µM] | AC50 [4] [µM] | AC50 (Cannabinoid receptor 1) [µM] | AC50 [5] [µM]
1 | COc1ccc(/C=C/C(=O)Nc2ccccc2C(=O)O)cc1OC | > 30 | > 30 | > 30 | 7.4 | > 30 |  | 
2 | NCCCC(O)(P(=O)(O)O)P(=O)(O)O [ALENDRONIC ACID] |  | > 10 |  |  | > 10 |  | 
3 | Nc1ccc(C(=O)O)c(O)c1 [AMINOSALICYLIC ACID] | > 30 | > 30 | > 30 | > 30 | > 30 | > 30 | 
4 | COc1cc(OC)c(C(=O)CCCN2CCCC2)c(OC)c1 [BUFLOMEDIL] | > 30 | > 30 | > 30 | > 30 | > 30 | > 30 | 
5 | CS(=O)(=O)OCCCCOS(C)(=O)=O [BUSULFAN] | > 30 | > 30 | > 30 | > 30 | > 30 | > 30 | 
6 | CCCCCCNC(=O)n1cc(F)c(=O)[nH]c1=O [CARMOFUR] | > 30 | > 30 | > 30 | > 30 | > 30 |  | 
7 | CC(C)(C)NCC(O)c1cc(Cl)c(N)c(Cl)c1 (stereo not drawn) [CLENBUTEROL] | > 30 | > 30 | > 30 | > 30 | > 30 | > 30 | 
8 | COc1cccc2c1C(=O)c1c(O)c3c(c(O)c1C2=O)C[C@@](O)(C(C)=O)C[C@@H]3O[C@H]1C[C@H](N)[C@H](O)[C@H](C)O1 [DAUNORUBICIN] |  | 16.2 | > 3 | > 30 | > 30 |  | 
9 | Clc1ccc2c(c1)C(c1ccccc1)=NCc1nncn1-2 [ESTAZOLAM] | > 10 | > 30 |  | > 30 | > 10 | > 30 | 
10 | CC(=O)OCC(CCn1cnc2cnc(N)nc21)COC(C)=O [FAMCICLOVIR] | > 10 | > 30 |  | > 30 | > 10 | > 30 | 
11 | Clc1ccc(C(Cn2ccnc2)OCc2ccc(Sc3ccccc3)cc2)c(Cl)c1 (stereo not drawn) [FENTICONAZOLE] | > 30 | > 30 | 25 | 30 | > 30 | 1.3 | 
12 | Nc1ccn([C@@H]2O[C@H](CO)[C@@H](O)C2(F)F)c(=O)n1 [GEMCITABINE] | > 10 | > 30 | > 30 | > 30 | > 10 | > 30 | 
13 | COC1=C(OC)C(=O)C(CCCCCCCCCCO)=C(C)C1=O [IDEBENONE] | > 10 | > 10 |  | > 30 | 8.5 | > 30 | 
14 | CC1(C)C(/C=C/C=C/C=C/C=C2\N(CCCCS(=O)(=O)O)c3ccc4ccccc4c3C2(C)C)=[N+](CCCCS(=O)(=O)[O-])c2ccc3ccccc3c21 [INDOCYANINE GREEN ACID FORM] |  | 9.7 | 3.4 | 21 | > 30 |  | 
15 | Nc1nc2c(c(=O)[nH]1)N(C=O)C(CNc1ccc(C(=O)N[C@@H](CCC(=O)O)C(=O)O)cc1)CN2 (stereo partly drawn) [LEUCOVORIN] | > 30 | > 30 | > 30 | > 30 | > 30 | > 30 | 
16 | CC#CCn1c(N2CCC[C@@H](N)C2)nc2c1c(=O)n(Cc1nc(C)c3ccccc3n1)c(=O)n2C [LINAGLIPTIN] |  | > 10 |  | > 30 | > 10 |  | 
17 | O=C1CN=C(c2ccccc2)c2cc(Cl)ccc2N1 [NORDAZEPAM] | > 10 | > 10 |  | > 30 | > 10 | > 30 | 
18 | CCn1cc(C(=O)O)c(=O)c2cc(F)c(N3CCN(C)CC3)cc21 [PEFLOXACIN] | > 30 | > 30 | > 30 | > 30 | > 30 | > 30 | 
19 | C[n+]1ccccc1/C=N/O [PRALIDOXIME] |  | > 30 |  |  | > 30 | > 30 | 
20 | CCCNC(C)C(=O)Nc1ccccc1C (stereo not drawn) [PRILOCAINE] | > 10 | > 30 | 3.9 | > 30 | > 30 | > 30 | 
21 | Cc1cc2nc3c(=O)[nH]c(=O)nc-3n(C[C@H](O)[C@H](O)[C@H](O)COP(=O)(O)O)c2cc1C [RIBOFLAVIN 5'-PHOSPHATE] |  | > 30 |  | 0.9 | > 30 |  | 
22 | CC(C)CC(N(C)C)C1(c2ccc(Cl)cc2)CCC1 (stereo not drawn) [SIBUTRAMINE] | > 30 | > 30 |  | > 30 | > 10 | > 30 | 
23 | [H]/N=C(/N)N[C@H]1[C@H](O)[C@@H](O)[C@H](O[C@@H]2O[C@@H](C)[C@](O)(C=O)[C@H]2O[C@@H]2O[C@@H](CO)[C@H](O)[C@@H](O)[C@@H]2NC)[C@@H](N/C(N)=N\[H])[C@@H]1O [STREPTOMYCIN] | > 30 | > 30 | > 30 | > 30 | > 30 | > 30 | 
24 | CC(C)(C)NC[C@H](O)COc1nsnc1N1CCOCC1 [TIMOLOL] | > 30 | > 30 | > 30 | > 30 | > 30 | > 30 | 
25 | Cc1cccc(N(C)C(=S)Oc2ccc3ccccc3c2)c1 [TOLNAFTATE] | > 10 | > 30 | > 30 | > 10 | > 30 |  | 
26 | CN1[C@@H]2CC[C@H]1C[C@@H](OC(=O)c1c[nH]c3ccccc13)C2 [TROPISETRON] | > 30 |  |  | > 30 | > 30 | > 30 | 
27 | COc1ccc(C(CN(C)C)C2(O)CCCCC2)cc1 (stereo not drawn) [VENLAFAXINE] | > 10 | > 30 |  | > 30 | > 10 |  | 
28 | N#C[C@@H]1CCCN1C(=O)CNC12CC3CC(CC(O)(C3)C1)C2 [VILDAGLIPTIN] | > 30 | > 30 |  | > 30 | > 30 |  | > 30
